From patent publication US20060110385A1, “Means and methods for diagnosing and treating affective disorders” (Affectis Pharmaceuticals AG, priority 2003, published 2006)
“Also recorded” adds a separate entry of the source.

What was measured:
Assay type in all cases: cell-based
[1] = biological target: T1, P2X7R (Mus musculus, UniProt Q9Z1M0); experiment: Calcium influx into HT-22 cells (Oregon green AM ester); details: 100 μM BzATP, 15 minutes
T1 construct: endogenous in cells; host or cells: HT-22 (immortalised mouse hippocampal cell line)
T1 sequence (Q9Z1M0 1-595): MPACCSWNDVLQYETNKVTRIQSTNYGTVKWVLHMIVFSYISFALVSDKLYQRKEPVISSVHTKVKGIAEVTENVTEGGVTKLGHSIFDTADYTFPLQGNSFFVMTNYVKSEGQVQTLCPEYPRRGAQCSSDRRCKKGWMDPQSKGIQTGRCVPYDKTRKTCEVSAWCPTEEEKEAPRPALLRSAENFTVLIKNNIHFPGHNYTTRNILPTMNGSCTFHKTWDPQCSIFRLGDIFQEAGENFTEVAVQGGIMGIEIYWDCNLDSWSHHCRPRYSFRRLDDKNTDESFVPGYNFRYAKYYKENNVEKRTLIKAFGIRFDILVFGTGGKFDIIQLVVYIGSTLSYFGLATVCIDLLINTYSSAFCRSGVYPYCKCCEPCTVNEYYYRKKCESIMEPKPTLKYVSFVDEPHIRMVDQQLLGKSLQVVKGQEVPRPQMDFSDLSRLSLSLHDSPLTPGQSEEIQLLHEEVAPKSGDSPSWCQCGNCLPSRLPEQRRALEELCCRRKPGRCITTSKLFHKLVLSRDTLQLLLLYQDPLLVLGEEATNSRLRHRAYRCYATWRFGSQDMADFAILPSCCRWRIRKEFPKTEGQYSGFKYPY
Text: Since P2X7R is an ATP-gated ion channel which allows the entry of calcium and sodium ions into cells, a method for identifying P2X7R agonist was established by monitoring calcium influx into HT-22 cells. […] Calcium movement into the cells was visualised under a fluorescent microscope with a fluorescein filter (wavelength 492/517 nm). Oregon green AM ester is a fluorescent dye that binds to intracellular calcium.
Activation of P2X7R by the agonist was inhibited by oATP (FIG. 18) as illustrated by the absence of green fluorescence in the cells.

[2] = biological target: T1, P2X7R; experiment: Entry of ethidium bromide into HT-22 cells; details: HT-22 cells, 60 minutes, 10^−4M ethidium bromide; 1 μM to 1 mM tested
Text: Yet another method of measuring P2X7R activity involves the entry of ethidium bromide into P2X7R expressing cells. Activation of P2X7R by an agonist allows the entry of ethidium bromide which binds nuclear DNA and emits a fluorescence signal. Alternatively, the propidium dye YOPRO-1 can be substituted for ethidium bromide. An increase in fluorescence can be used as a measure of P2X7 receptor activation. Therefore, the assay can be used to test and quantify the effect of an agent or compound with agonist properties on P2X7R. In the present example, 10^3 HT-22 cells were seeded per well in a 96-well flat bottom microtitre plates and incubated at 37° C./5% CO2 in DMEM medium containing 10% FCS until the cells attached to the culture surface. […] The number of fluorescent cells which have integrated the ethidium bromide to the DNA can then be counted using a fluorescent microscope (Zeiss, Germany). […] Alternatively, ethidium bromide fluorescence can be measured using a Perkin-Elmer fluorescent plate reader (excitation 520 nm, emission 595 nm, slit widths: Ex 15 nm, Em 20 nm). From the readings obtained, a pIC50 figure can be calculated for each candidate agent or compound. […] The specificity of an agonist for P2X7R can be evaluated by pre-incubation of the cells for 60 minutes with 100 μM o-ATP before adding the agonist and ethidium bromide dye.

[3] = biological target: T2, P2X7R (Homo sapiens, UniProt Q99572); experiment: Calcium entry (Fluo-4 AM) in HT-22 cells overexpressing human P2X7R; parameters: expressed in transfected cells; details: 20 μM BzATP or 50 μM tenidap
T2 sequence (Q99572 1-595): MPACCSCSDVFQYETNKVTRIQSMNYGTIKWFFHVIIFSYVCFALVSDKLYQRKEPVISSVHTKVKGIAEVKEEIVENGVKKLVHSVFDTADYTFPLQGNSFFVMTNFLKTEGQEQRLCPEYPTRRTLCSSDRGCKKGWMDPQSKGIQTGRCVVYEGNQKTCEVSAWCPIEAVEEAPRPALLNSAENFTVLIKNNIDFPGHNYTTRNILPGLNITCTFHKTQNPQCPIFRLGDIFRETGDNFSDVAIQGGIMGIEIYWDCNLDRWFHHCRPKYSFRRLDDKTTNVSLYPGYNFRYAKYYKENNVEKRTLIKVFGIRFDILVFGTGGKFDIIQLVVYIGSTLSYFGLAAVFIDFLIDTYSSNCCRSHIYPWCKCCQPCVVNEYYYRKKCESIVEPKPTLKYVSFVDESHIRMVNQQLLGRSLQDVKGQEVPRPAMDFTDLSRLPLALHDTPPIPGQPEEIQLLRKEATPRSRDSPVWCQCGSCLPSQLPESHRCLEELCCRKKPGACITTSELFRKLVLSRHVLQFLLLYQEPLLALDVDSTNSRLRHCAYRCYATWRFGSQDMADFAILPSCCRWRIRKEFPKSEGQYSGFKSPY
Text: Yet another method for identifying P2X7R agonists was devised by generating a immortalised mouse cell line that overexpresses the human P2X7R gene under the control of the human cytomegalovirus (CMV) early promoter/enhancer region. The human P2X7R cDNA was inserted into the pcDNA3.1 vector (Invitrogen) and transfected into the mouse hippocampal cell line HT-22 using Lipofectamine (Invitrogen) according to the manufacturer's specifications. One day after transfection, culture medium containing 500 μg/ml G418 was added to the cells. Resistant clones were separately isolated and cultured 14 days after applying the selection medium.
The agonistic activity of a compound was evaluated by measuring calcium entry in the cells that overexpress the human P2X7R. Cells were cultured in 96 well plates and incubated at 37° C. with 5% CO2 DMEM with 10% foetal calf serum (Gibco) until they reached confluence. Cells were then loaded for one hour with 10 μM of Fluo-4 AM (Molecular Probes). Fluo-4 AM is a fluorescent dye that binds to intracellular calcium. […] Agonist activity was detected by measuring an increase in calcium influx which results in increased binding to Fluo-4 AM and increased fluorescence. Changes in fluorescence signal are measured using a Fluostar Optima plate reader (BMG biotech). […] Thus, both compound stimulated the activity of P2X7R which results in an influx of ions into the cells.

Substance: 2′-3′-O-(4-Benzoylbenzoyl)adenosine 5′-triphosphate [BzATP]
- calcium influx (green fluorescence) [1]: Increase calcium influx; also recorded: increase in green fluorescence
- concentration that increased the number of fluorescent nuclei [2]: above 100 μM
- fluorescence intensity (calcium influx, Fluo-4 AM) [3]: rapid increase in fluorescence intensity
